Our source for the GI50 and IC50 values is US20250188040A1, “PHARMACEUTICAL COMPOSITIONS COMPRISING WRN HELICASE INHIBITORS” (Vividion Therapeutics, Inc., priority 2022, published 2025).

The test system of one assay is SW480 cells. The assay is described as follows: Cell growth assay (CellTiter-Glo 2.0), SW480 MSS cell line. As to conditions: Homo sapiens, SW480, 120 h, read-out: Cell Growth Inhibition GI50 SW480.
The target of another assay is T1, WRN C727 (Homo sapiens, UniProt Q14191).
T1 construct: endogenous in cells; host or cells: OCI-AML2
T1 sequence (Q14191 whole entry): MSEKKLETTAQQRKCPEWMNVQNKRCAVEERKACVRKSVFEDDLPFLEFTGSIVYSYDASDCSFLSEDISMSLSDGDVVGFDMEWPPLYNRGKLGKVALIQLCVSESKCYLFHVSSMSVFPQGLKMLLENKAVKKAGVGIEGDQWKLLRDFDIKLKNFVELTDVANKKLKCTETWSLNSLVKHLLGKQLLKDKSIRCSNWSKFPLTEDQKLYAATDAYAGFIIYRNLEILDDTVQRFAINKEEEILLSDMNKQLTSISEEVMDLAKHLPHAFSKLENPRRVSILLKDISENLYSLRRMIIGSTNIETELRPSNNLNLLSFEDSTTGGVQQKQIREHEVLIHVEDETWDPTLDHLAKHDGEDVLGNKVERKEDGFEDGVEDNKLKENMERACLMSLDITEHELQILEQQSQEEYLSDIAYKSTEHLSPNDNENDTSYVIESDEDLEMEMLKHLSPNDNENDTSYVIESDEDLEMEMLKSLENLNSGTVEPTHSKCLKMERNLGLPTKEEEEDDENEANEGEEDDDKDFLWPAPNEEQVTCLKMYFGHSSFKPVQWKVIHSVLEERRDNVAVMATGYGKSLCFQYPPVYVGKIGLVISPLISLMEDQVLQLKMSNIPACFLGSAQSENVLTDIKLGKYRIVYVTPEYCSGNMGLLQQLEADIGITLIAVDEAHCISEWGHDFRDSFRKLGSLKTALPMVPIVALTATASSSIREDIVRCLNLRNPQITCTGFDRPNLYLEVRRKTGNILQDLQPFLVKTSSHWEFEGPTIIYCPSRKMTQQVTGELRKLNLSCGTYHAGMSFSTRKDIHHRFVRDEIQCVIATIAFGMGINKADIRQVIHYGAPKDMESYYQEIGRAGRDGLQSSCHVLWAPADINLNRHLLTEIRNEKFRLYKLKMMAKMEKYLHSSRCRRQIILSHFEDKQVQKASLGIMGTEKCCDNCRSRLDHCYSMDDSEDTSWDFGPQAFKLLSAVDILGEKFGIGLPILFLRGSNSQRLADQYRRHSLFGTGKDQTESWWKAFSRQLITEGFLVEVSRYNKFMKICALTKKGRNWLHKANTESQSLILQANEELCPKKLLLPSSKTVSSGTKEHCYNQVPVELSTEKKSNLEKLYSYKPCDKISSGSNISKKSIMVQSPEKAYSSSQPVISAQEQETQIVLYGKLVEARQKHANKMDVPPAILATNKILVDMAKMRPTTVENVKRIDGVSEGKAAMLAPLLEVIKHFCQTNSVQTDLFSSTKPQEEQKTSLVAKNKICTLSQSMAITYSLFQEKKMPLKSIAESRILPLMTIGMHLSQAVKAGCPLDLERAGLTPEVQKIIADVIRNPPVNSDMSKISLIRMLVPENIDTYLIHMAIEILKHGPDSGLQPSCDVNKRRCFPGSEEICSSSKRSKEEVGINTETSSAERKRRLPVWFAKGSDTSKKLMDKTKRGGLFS
The assay is described as follows: Target engagement, in vitro (lysate), OCI-AML2. It is filed as binding. The settings on record: read-out: OCI-AML2 WRN C727 TE50 in vitro (lysate). Put shortly: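 Percent engagement of WRN C727 is expressed against DMSO-treated samples, measured by PRM mass spectrometry of streptavidin-enriched, probe-tagged tryptic peptides. Compound dose responses preceded probe labelling of solvent-exposed cysteines, in either living OCI-AML2 cells or their lysates.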

Assay [1] addresses hWRN(519-1227)_C-H3CV-GFP-10His (Homo sapiens, UniProt Q14191). The assay is described as follows: Helicase Assay for WRN Inhibition (ATP-dependent, fluorescence based).
Experimental: Effects of compounds on WRN helicase activity were assessed with the Helicase Assay for WRN Inhibition. This is an ATP-dependent (inclusion of ATP is important and is required for this assay) fluorescence based assay using recombinant WRN and a fluorogenic DNA substrate.
WRN activity was normalized to signal from wells without WRN protein (background, 0% activity) and wells with protein treated only with DMSO (positive control, 10000 activity). For each compound the potency of inhibition (IC50) was determiined using Graphpad Prism.
In the next assay the test system is HCT 116 cells. The assay is described as follows: Cell growth assay (CellTiter-Glo 2.0), HCT 116 MSI-H cell line. The settings on record: Homo sapiens, HCT-116, 120 h, read-out: Cell Growth Inhibition GI50 HCT-116. Background: In ATP-based viability assays light output follows the ATP content of the culture.
Setting [2] is: WRN Helicase IC50, 30 min preincubation with ATP, 30 min reaction.

Where two headings read alike, the source gives them in different places.

Chain of hWRN(519-1227)_C-H3CV-GFP-10His (Q14191 519-1227): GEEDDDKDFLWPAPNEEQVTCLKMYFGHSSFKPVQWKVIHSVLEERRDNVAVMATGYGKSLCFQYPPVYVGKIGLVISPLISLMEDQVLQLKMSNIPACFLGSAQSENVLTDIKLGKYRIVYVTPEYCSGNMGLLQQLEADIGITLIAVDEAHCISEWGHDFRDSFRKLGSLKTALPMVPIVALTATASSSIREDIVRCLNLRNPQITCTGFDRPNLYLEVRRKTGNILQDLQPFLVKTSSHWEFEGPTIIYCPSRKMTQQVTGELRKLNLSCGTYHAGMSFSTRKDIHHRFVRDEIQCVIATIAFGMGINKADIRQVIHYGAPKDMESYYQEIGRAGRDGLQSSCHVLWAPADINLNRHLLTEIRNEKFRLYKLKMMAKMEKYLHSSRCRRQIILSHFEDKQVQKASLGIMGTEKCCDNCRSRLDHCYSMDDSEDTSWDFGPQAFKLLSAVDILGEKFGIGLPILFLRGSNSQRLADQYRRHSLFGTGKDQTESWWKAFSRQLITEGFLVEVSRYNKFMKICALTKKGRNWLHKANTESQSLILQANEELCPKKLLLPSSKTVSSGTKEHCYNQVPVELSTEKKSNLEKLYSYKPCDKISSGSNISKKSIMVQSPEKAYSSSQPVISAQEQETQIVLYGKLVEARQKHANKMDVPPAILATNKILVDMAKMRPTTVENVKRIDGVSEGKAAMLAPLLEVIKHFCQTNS

Regarding `CC(C)(C)c1ncc(C(=O)N[C@H](/C=C/S(C)(=O)=O)CC(F)F)c(Oc2ccccc2)n1` [Example 73, (S,E)-2-(tert-butyl)-N-(5,5-difluoro-1-(methylsulfonyl)pent-1-en-3-yl)-4-phenoxypyrimidine-5-carboxamide], the results for the GI50 with SW480 cells and in the assay with HCT 116 cells were 16000 nM and 300 nM, respectively. Besides, the figures for the IC50 (at WRN C727; in assay [1] (setting [2])) were 470 nM and 150 nM, respectively.
The corresponding values for `CS(=O)(=O)/C=C/[C@@H](NC(=O)c1cnc(C2CCC2)nc1Oc1ccccc1)C1CC1` [Example 45, (S,E)-2-cyclobutyl-N-(1-cyclopropyl-3-(methylsulfonyl)allyl)-4-phenoxypyrimidine-5-carboxamide] are 13000 nM, 36.7 nM, 110 nM and 86 nM.
The corresponding values for `CS(=O)(=O)/C=C/[C@@H](NC(=O)c1cnc(N2CCC2)nc1Oc1ccccc1)C1CC1` [Example 181, (S,E)-2-(azetidin-1-yl)-N-(1-cyclopropyl-3-(methylsulfonyl)allyl)-4-phenoxypyrimidine-5-carboxamide] are 17000 nM, 88.4 nM, 27200 nM and 870 nM.
The corresponding values for `CC(C)(C)c1ncc(C(=O)N[C@H](/C=C/S(C)(=O)=O)C2CC(F)(F)C2)c(Oc2ccccc2)n1` [Example 67, (S,E)-2-(tert-butyl)-N-(1-(3,3-difluorocyclobutyl)-3-(methylsulfonyl)allyl)-4-phenoxypyrimidine-5-carboxamide] are 9780 nM, 43.9 nM, 500 nM and 140 nM.
With `C[C@@H](/C=C/S(C)(=O)=O)NC(=O)c1cnc(C2CCCC2)nc1OC1CCCCCC1` [Example 128, (S,E)-4-(cycloheptyloxy)-2-cyclopentyl-N-(4-(methylsulfonyl)but-3-en-2-yl)pyrimidine-5-carboxamide], the 50% growth inhibitory concentration (GI50) in the assay with SW480 cells came out at 4200 nM; in the assay with HCT 116 cells, 2500 nM. In addition, the figures for the IC50 (at WRN C727; in assay [1] (setting [2])) were 25100 nM and 5900 nM, respectively.
The corresponding values for `C[C@@H](/C=C/S(C)(=O)=O)NC(=O)c1cnc(C2(c3ccccc3)CC2)nc1Oc1ccccc1` [Example 42, (S,E)-N-(4-(methylsulfonyl)but-3-en-2-yl)-4-phenoxy-2-(1-phenylcyclopropyl)pyrimidine-5-carboxamide] are 5200 nM, 355 nM, 4440 nM and 1700 nM.
On the same counts, the results for `C[C@@H](/C=C/S(C)(=O)=O)NC(=O)c1cnc(N2C3CCC2CC3)nc1Oc1ccccc1` [Example 166, (S,E)-2-(7-azabicyclo[2.2.1]heptan-7-yl)-N-(4-(methylsulfonyl)but-3-en-2-yl)-4-phenoxypyrimidine-5-carboxamide] are > 10000 nM, 690 nM, 8930 nM and 3600 nM.
On the same counts, the results for `CS(=O)(=O)/C=C/[C@@H](NC(=O)c1cnc([C@H]2C[C@@H](C)C2)nc1Oc1ccccc1)C1CC1` (single isomer, unassigned) [Example 48] are 5970 nM, 36.5 nM, 35 nM and 62 nM.
In the case of `CC(C)(C)c1ncc(C(=O)N[C@H](/C=C/S(C)(=O)=O)C2CCC2)c(Oc2ccccc2)n1` [Example 66, (S,E)-2-(tert-butyl)-N-(1-cyclobutyl-3-(methylsulfonyl)allyl)-4-phenoxypyrimidine-5-carboxamide], the figures for the GI50 with SW480 cells and in the assay on HCT 116 cells were 21800 nM and 30.2 nM, respectively. Further, the IC50 was 380 nM on WRN C727 and 113 nM in assay [1] (setting [2]).
On the same counts, the results for `CC(C)(C)c1ncc(C(=O)N[C@H](/C=C\S(C)(=O)=O)Cc2ccccc2)c(Oc2ccccc2)n1` (single isomer, unassigned) [Example 61] are 7500 nM, 1300 nM, > 100000 nM and 3500 nM.
As for `CC(=O)C=C1CN(C(=O)c2cnc(C(C)(C)C)nc2Oc2ccccc2)C1` [Example 190, 1-(1-(2-(tert-butyl)-4-phenoxypyrimidine-5-carbonyl)azetidin-3-ylidene)propan-2-one], the GI50 with SW480 cells amounted to 5400 nM; in the assay with HCT 116 cells, 530 nM. For the same compound, the values for the IC50 (at WRN C727; in assay [1]) were 690 nM and 310 nM, respectively.
The corresponding values for `CS(=O)(=O)C=C1CN(C(=O)c2cnc([C@H]3C[C@@H](C)C3)nc2Oc2ccccc2)C1` (single isomer, unassigned) [Example 50, (2-((1s,3s)-3-methylcyclobutyl)-4-phenoxypyrimidin-5-yl)(3-((methylsulfonyl)methylene)azetidin-1-yl)methanone] are 7500 nM, 94.7 nM, 280 nM and 220 nM.
As for `CS(=O)(=O)/C=C/[C@@H](NC(=O)c1cnc(C(F)(F)F)nc1Oc1ccccc1)C1CC1` [Example 82, (S,E)-N-(1-cyclopropyl-3-(methylsulfonyl)allyl)-4-phenoxy-2-(trifluoromethyl)pyrimidine-5-carboxamide], the results for the concentration for 50% growth inhibition (GI50) in the assay with SW480 cells and with HCT 116 cells were 20000 nM and 280 nM, respectively. Further, the IC50 on WRN C727 worked out at 700 nM; in assay [1] (setting [2]), 550 nM.
On the same counts, the results for `CC(C)(C)c1ncc(C(=O)N[C@H](/C=C/S(C)(=O)=O)Cc2ccccc2)c(Oc2ccccc2)n1` (single isomer, unassigned) [Example 60] are 13000 nM, 200 nM, 2870 nM and 410 nM.
The corresponding values for `C[C@@H](/C=C/S(C)(=O)=O)NC(=O)c1ccc(C2=CCCC2)nc1Oc1ccccc1` [Example 202, (S,E)-6-(cyclopent-1-en-1-yl)-N-(4-(methylsulfonyl)but-3-en-2-yl)-2-phenoxynicotinamide] are > 10000 nM, 7200 nM, 75000 nM and 8600 nM.
The corresponding values for `CSC[C@@H](/C=C/S(C)(=O)=O)NC(=O)c1cnc(C2CC2)nc1Oc1ccccc1` [Example 31, (R,E)-2-cyclopropyl-N-(4-(methylsulfonyl)-1-(methylthio)but-3-en-2-yl)-4-phenoxypyrimidine-5-carboxamide] are 28000 nM, 630 nM, 3240 nM and 880 nM.
As for `C[C@@H](/C=C/S(C)(=O)=O)NC(=O)c1cnc(C(C)(C)C)nc1O[C@@H]1C[C@@H]2C[C@@H]2C1` [Example 157, 4-[[(1S,5R)-3-bicyclo[3.1.0]hexanyl]oxy]-2-tert-butyl-N—[(E,1S)-1-methyl-3-methylsulfonyl-allyl]pyrimidine-5-carboxamide], the values for the GI50 with SW480 cells and with HCT 116 cells were > 10000 nM and 1100 nM, respectively. For the same compound, the IC50 at WRN C727 was 15000 nM; in assay [1] (setting [2]) it was 4000 nM.
The corresponding values for `C[C@@H]1CCCN1c1ncc(C(=O)N[C@@H](C)/C=C/S(C)(=O)=O)c(Oc2ccccc2)n1` [Example 176, 2-((R)-2-methylpyrrolidin-1-yl)-N—((S,E)-4-(methylsulfonyl)but-3-en-2-yl)-4-phenoxypyrimidine-5-carboxamide] are 13000 nM, 440 nM, 1660 nM and 1600 nM.
For `C[C@@H](/C=C/S(C)(=O)=O)NC(=O)c1cnc(C2(F)CC2)nc1Oc1ccccc1` [Example 99, (S,E)-2-(1-fluorocyclopropyl)-N-(4-(methylsulfonyl)but-3-en-2-yl)-4-phenoxypyrimidine-5-carboxamide], the GI50 in the assay on SW480 cells was determined as 40000 nM; with HCT 116 cells, 740 nM. In addition, the IC50 at WRN C727 was determined as 10000 nM; in assay [1] (setting [2]), 2000 nM.
On the same counts, the results for `CS(=O)(=O)/C=C/CNC(=O)c1cnc(C2CCC2)nc1Oc1ccccc1` [Example 43, (E)-2-cyclobutyl-N-(3-(methylsulfonyl)allyl)-4-phenoxypyrimidine-5-carboxamide] are 7800 nM, 670 nM, 18700 nM and 1500 nM.
On the same counts, the results for `C[C@@H](/C=C/S(C)(=O)=O)NC(=O)c1cnc(C2CCCC2)nc1Oc1ccccc1O` [Example 137, (S,E)-2-cyclopentyl-4-(2-hydroxyphenoxy)-N-(4-(methylsulfonyl)but-3-en-2-yl)pyrimidine-5-carboxamide] are > 10000 nM, 980 nM, 10000 nM and 3400 nM.
For `CC1(Cc2ncc(C(=O)N3CC(=CS(C)(=O)=O)C3)c(Oc3ccccc3)n2)CC1` [Example 41, (2-((1-methylcyclopropyl)methyl)-4-phenoxypyrimidin-5-yl)(3-((methylsulfonyl)methylene)azetidin-1-yl)methanone], the GI50 is 33000 nM with SW480 cells and 720 nM with HCT 116 cells. The IC50 on WRN C727 was determined as 2060 nM; in assay [1] it was 1400 nM.
Consider `C[C@@H](/C=C/S(C)(=O)=O)NC(=O)c1ccc(C2CCCC2)cc1Oc1ccccc1` [Example 286, (S,E)-4-cyclopentyl-N-(4-(methylsulfonyl)but-3-en-2-yl)-2-phenoxybenzamide], for which the 50% growth inhibitory concentration (GI50) is > 10000 nM in the assay with SW480 cells and 600 nM with HCT 116 cells. The IC50 on WRN C727 worked out at 3580 nM; in assay [1] (setting [2]), 1400 nM.

What is called GI50 is the concentration that inhibits growth by half.
